# Data published in patent US20230165831A1, “METHOD AND COMPOSITION FOR RENDERING CANCER CELLS SUSCEPTIBLE TO TREATMENT BY TARGETED ONCOGENETIC DRIVERS” (IMPACT BIOLIFE SCIENCE, INC., priority 2021, published 2023).
# Like-named read-outs stand apart in the source and are kept apart here.
# Tests used:
# [1] = tested on: pancreatic cancer line Capan-1 cells; assay: CTG (CellTiter-Glo) cell viability assay, 6×6 combo matrix, 72 h, Capan-1; assay type: cell-based; conditions: Homo sapiens, CAPAN-1; read-out: Relatively Cell inhibition of vehicle control
# Method: To measure the cell inhibition effect of compounds and synergy effect of test articles on ten (10) cell lines using standard CTG assay.
# b. A549, T47D, SK-OV-3, MKN45, SK-Hep-1, HT-29, Capan-1, 786-O and LNCaP cell line, for compounds and vehicle groups, the seeding density of cell lines is 3000 cells/80 µL per well. For blank groups, add 100 µL medium. For PBS groups, add 100 µL PBS.
# 8) Incubate the U87MG, A549, T47D, SK-OV-3, MKN45, SK-Hep-1, HT-29, Capan-1, 786-O and LNCaP cells overnight at 37° C./5% CO2.
# 5) Incubate the plates at 37° C./5% CO2 for 72 hours.
# 6) Read plates in Envision.
# [2] = tested on: breast cancer line T47D cells;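 further: luminescence read-out after 72 h at 37 °C under 5% CO2, with medium-only wells as blanks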
# Method: (§1) 7) Using complete cell medium, adjust the volume of the suspension to achieve a cell concentration.
# (§2) Solid compound of cis-platinum was solubilized in PBS to a stock solution of 3.333 mM.
# (§3) Final volume is 100 µL per well at this point.
# (§4) 1) Incubate the plates at room temperature and away from light for 30 minutes.
# (§5) 3) Add 100 µL /well of CellTiter-Glo® Reagent in each well. Avoid light.
# (§6) 4) Mix contents for 2 minutes on an orbital shaker.
# (§7) 5) Incubate plate at room temperature for 10 minutes to stabilize the luminescent signal.
# [3] = tested on: prostate adenocarcinoma line LNCap cells;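 further: luminescence signal read after adding CellTiter-Glo reagent, with cells exposed to compounds for 72 h at 37 °C under 5% CO2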
# [4] = tested on: kidney cancer line 786-O cells;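 further: luminescence read-out after adding CellTiter-Glo reagent, with cells incubated at 37 °C under 5% CO2 during compound exposure, part of a ten cell line synergy study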
# Method: as §1, §2, §3, §4, §5, §6, §7
# [5] = tested on: Liver cancer line SK-HEP-1 cells;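 further: luminescent signal read after 72 h compound exposure at 37 °C under 5% CO2, with medium-only wells serving as blank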
# Method: as §1, §2, §3, §4, §5, §6, §7
# [6] = tested on: ovarian cancer line SK-OV3 cells;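 further: luminescent signal read after CellTiter-Glo addition, cells exposed to compounds for 72 h at 37 °C under 5% CO2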
# [7] = tested on: breast cancer line T47D cells; assay: CTG (CellTiter-Glo) cell viability assay, 6×6 combo matrix, 72 h, T47D; conditions: Homo sapiens;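 further: luminescence read-out after 72 h at 37 °C under 5% CO2, with medium-only wells as blanks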
# Method: as §1, §2, §3, §4, §5, §6, §7
# [8] = tested on: colorectal cancer line HT29 cells; assay: CTG (CellTiter-Glo) cell viability assay, 6×6 combo matrix, 72 h, HT29; conditions: Homo sapiens, HT-29, read-out: Relatively Cell inhibition of vehicle control(%);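 further: cells exposed to compounds for 72 hours at 37 °C under 5% CO2, then viability read as luminescence after adding CellTiter-Glo Reagent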
# Method: as §1, §2, §3, §4, §5, §6, §7
# [9] = tested on: lung adenocarcinoma line A549 cells; assay: CTG (CellTiter-Glo) cell viability assay, 6×6 combo matrix, 72 h, A549; conditions: Homo sapiens, A549, read-out: Relatively Cell inhibition of vehicle control(%);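 further: luminescent ATP readout with CellTiter-Glo after compound exposure, used to assess growth inhibition and combination synergy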
# Method: as §1, §2, §3, §4, §5, §6, §7
# [10] = tested on: prostate adenocarcinoma line LNCap cells; assay: CTG (CellTiter-Glo) cell viability assay, 6×6 combo matrix, 72 h, LNCaP; conditions: Homo sapiens, LNCaP;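 further: luminescence signal read after adding CellTiter-Glo reagent, with cells exposed to compounds for 72 h at 37 °C under 5% CO2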
# [11] = tested on: kidney cancer line 786-O cells; assay: CTG (CellTiter-Glo) cell viability assay, 6×6 combo matrix, 72 h, 786-O; conditions: Homo sapiens, 786-0, read-out: Relatively Cell inhibition of vehicle control;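 further: luminescence read-out after adding CellTiter-Glo reagent, with cells incubated at 37 °C under 5% CO2 during compound exposure, part of a ten cell line synergy study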
# Method: as §1, §2, §3, §4, §5, §6, §7
# [12] = tested on: Liver cancer line SK-HEP-1 cells; assay: CTG (CellTiter-Glo) cell viability assay, 6×6 combo matrix, 72 h, SK-Hep-1; conditions: Homo sapiens;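 further: luminescent signal read after 72 h compound exposure at 37 °C under 5% CO2, with medium-only wells serving as blank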
# Method: as §1, §2, §3, §4, §5, §6, §7
compound,measurement,setting,value
COc1cccc2c1C(=O)c1c(O)c3c(c(O)c1C2=O)C[C@@](O)(C(=O)CO)C[C@@H]3O[C@H]1C[C@H](N)[C@H](O)[C@H](C)O1 [doxorubicin],inhibition at 0.08 µM,[1],44.8%
same,inhibition at 0.4 µM,[1],68%
same,inhibition at 2 µM,[1],86.9%
same,inhibition at 10 µM,[1],74.9%
same,inhibition,[2],0.17%
same,inhibition,[3],7.17%
same,inhibition,[4],3.98%
same,inhibition,[5],4.48%
same,inhibition,[6],2.75%
same,inhibition at […],"[7]; read-out: Relatively Cell inhibition of vehicle control(%), T47D, 16 nM doxorubicin only (myricetin 0)",6.02%
same,inhibition at 0.08 µM,"[7]; read-out: Relatively Cell inhibition of vehicle control(%), T47D, 80 nM doxorubicin only (LB-1 0)",19.3%
same,inhibition at 0.08 µM,"[7]; read-out: Relatively Cell inhibition of vehicle control(%), T47D, 80 nM doxorubicin only (myricetin 0)",23%
same,inhibition at 0.4 µM,"[7]; read-out: Relatively Cell inhibition of vehicle control(%), T47D, 400 nM doxorubicin only (LB-1 0)",50.2%
same,inhibition at 0.4 µM,"[7]; read-out: Relatively Cell inhibition of vehicle control(%), T47D, 400 nM doxorubicin only (myricetin 0)",53.7%
same,inhibition at 2 µM,"[7]; read-out: Relatively Cell inhibition of vehicle control(%), T47D, 2000 nM doxorubicin only (LB-1 0)",51.6%
same,inhibition at 2 µM,"[7]; read-out: Relatively Cell inhibition of vehicle control(%), T47D, 2000 nM doxorubicin only (myricetin 0)",59%
same,inhibition at 10 µM,"[7]; read-out: Relatively Cell inhibition of vehicle control(%), T47D, 10000 nM doxorubicin only (LB-1 0)",45.3%
same,inhibition at 10 µM,"[7]; read-out: Relatively Cell inhibition of vehicle control(%), T47D, 10000 nM doxorubicin only (myricetin 0)",48.1%
same,inhibition at 0.08 µM,[8],25.6%
same,inhibition at 0.4 µM,[8],61.1%
same,inhibition at 2 µM,[8],92.3%
same,inhibition at 10 µM,[8],79.1%
same,inhibition at 0.08 µM,[9],42.2%
same,inhibition at 0.4 µM,[9],61.4%
same,inhibition at 2 µM,[9],95.8%
same,inhibition at 10 µM,[9],94.3%
same,inhibition at […],"[10]; read-out: Relatively Cell inhibition of vehicle control(%), doxorubicin 16 nM only (myricetin plate)",2.69%
same,inhibition at 0.08 µM,"[10]; read-out: Relatively Cell inhibition of vehicle control(%), doxorubicin 80 nM only (LB-1 plate)",29.9%
same,inhibition at 0.08 µM,"[10]; read-out: Relatively Cell inhibition of vehicle control(%), doxorubicin 80 nM only (myricetin plate)",31.7%
same,inhibition at 0.4 µM,"[10]; read-out: Relatively Cell inhibition of vehicle control(%), doxorubicin 400 nM only (LB-1 plate)",65.2%
same,inhibition at 0.4 µM,"[10]; read-out: Relatively Cell inhibition of vehicle control(%), doxorubicin 400 nM only (myricetin plate)",67.3%
same,inhibition at 2 µM,"[10]; read-out: Relatively Cell inhibition of vehicle control(%), doxorubicin 2000 nM only (LB-1 plate)",97.2%
same,inhibition at 2 µM,"[10]; read-out: Relatively Cell inhibition of vehicle control(%), doxorubicin 2000 nM only (myricetin plate)",97%
same,inhibition at 10 µM,"[10]; read-out: Relatively Cell inhibition of vehicle control(%), doxorubicin 10000 nM only (LB-1 plate)",87.8%
same,inhibition at 10 µM,"[10]; read-out: Relatively Cell inhibition of vehicle control(%), doxorubicin 10000 nM only (myricetin plate)",88.9%
same,inhibition at 0.08 µM,[11],24%
same,inhibition at 0.4 µM,[11],64.9%
same,inhibition at 2 µM,[11],76.2%
same,inhibition at 10 µM,[11],83.8%
same,inhibition at […],"[12]; SK-HEP1, read-out: Relatively Cell inhibition of vehicle control, doxorubicin 16 nM only (myricetin table)",6.89%
same,inhibition at 0.08 µM,"[12]; SK-HEP1, read-out: Relatively Cell inhibition of vehicle control, doxorubicin 80 nM only (LB-1 table)",31.3%
same,inhibition at 0.08 µM,"[12]; SK-HEP1, read-out: Relatively Cell inhibition of vehicle control, doxorubicin 80 nM only (myricetin table)",25.5%
same,inhibition at 0.4 µM,"[12]; SK-HEP1, read-out: Relatively Cell inhibition of vehicle control, doxorubicin 400 nM only (LB-1 table)",66.2%
same,inhibition at 0.4 µM,"[12]; SK-HEP1, read-out: Relatively Cell inhibition of vehicle control, doxorubicin 400 nM only (myricetin table)",68.5%
same,inhibition at 2 µM,"[12]; SK-HEP1, read-out: Relatively Cell inhibition of vehicle control, doxorubicin 2000 nM only (LB-1 table)",98.6%
same,inhibition at 2 µM,"[12]; SK-HEP1, read-out: Relatively Cell inhibition of vehicle control, doxorubicin 2000 nM only (myricetin table)",98.5%
same,inhibition at 10 µM,"[12]; SK-HEP1, read-out: Relatively Cell inhibition of vehicle control, doxorubicin 10000 nM only (LB-1 table)",99.4%
same,inhibition at 10 µM,"[12]; SK-HEP1, read-out: Relatively Cell inhibition of vehicle control, doxorubicin 10000 nM only (myricetin table)",99.4%
